The subject of assay [1] is pUC18 circular plasmid DNA. Put plainly: DNA binding by agarose gel electrophoresis (migration shift of plasmid). Conditions: for DNA binding: 10:1 metal complex:DNA base pair, with and without O2. The text has this: (§1) FIG. 6. DNA binding and photocleavage by [{(bpy)2Ru(dpp)}2Ru(dpp)PtCl2](PF6)6 (Ru3Pt) assayed with 0.8% agarose gel electrophoresis post stained with ethidium bromide using circular plasmid pUC18 DNA with comparison to cis-[Pt(NH3)2Cl2] (Cisplatin) and [{(bpy)2Ru(dpp)}2Ru(dpp)](PF6)6 (Ru3) (bpy=2,2′-bipyridine, dpp=2,3-bis(2-pyridyl)pyrazine). Lanes λ are the molecular weight standards (23, 9.4, 6.6, 4.4, 2.3, and 2.0 kb), lanes C are the DNA controls showing mostly form I and minor form II pUC18 DNA. The cisplatin lane 1 is a 5:1 base pair (BP):metal complex (MC) and lane 2 a 20:1 BP:MC incubated for 1 hour at 37° C. The Ru3 lane 1 is a 20:1 BP:MC incubated for 1 hour at 37° C. The Ru3Pt lane 1 is 20:1 BP:MC kept in the dark at room temperature, lane 2 is 20:1 BP:MC incubated for 1 hour in the dark at 37° C., lane 3 is 20:1 BP:MC photolyzed with 450 nm-1000 nm light for 1 hour under atmospheric conditions, lane 4 is 20:1 BP:MC photolyzed with 450 nm-1000 nm light for 1 hour under argon.
(§2) FIG. 9. DNA binding and photocleavage by [{(bpy)2Ru(dpp)}2Ru(dpq)PtCl2](PF6)6. Lane 1 is the molecular weight standard, lane C is the pUC18 DNA plasmid control, lane 25° is 10:1 metal complex:DNA base pair incubated at 25° C., lane 37° is the 10:1 ratio incubated at 37° C., Ar* is the 10:1 ratio photolyzed for 1 hour under Ar, lane O2* is the 10:1 ratio photolyzed under ambient atmosphere.
(§3) FIG. 10. DNA binding and photocleavage by [{(bpy)2Os(dpp)}2Ru(dpq)PtCl2](PF6)6. Lane 1 is the molecular weight standard, lane C is the pUC18 DNA plasmid control, lane 25° is 10:1 metal complex:DNA base pair incubated at 25° C., lane 37° is the 10:1 ratio incubated at 37° C., Ar* is the 10:1 ratio photolyzed for 1 hour under Ar, lane O2* is the 10:1 ratio photolyzed under ambient atmosphere.
(§4) The DNA binding and photocleavage ability of the exemplary complex, [{(bpy)2Ru(dpp)}2Ru(dpp)PtCl2](PF6)6, has been investigated using gel electrophoresis. The cis-dichloroplatinum(II) moiety is designed to allow the complex to bind covalently to DNA. The Ru polyazine units are designed to allow the complex to undergo sensitization of molecular oxygen leading to DNA photocleavage. The presence of the cis-dichloroplatinum(II) sub-unit delivers the Ru polyazine sub-unit to its target prior to optical excitation. DNA interactions of [{(bpy)2Ru(dpp)}2Ru(dpp)PtCl2](PF6)6 were compared to a binding analyses of Ru3 and cisplatin using gel electrophoresis and pUC18 circular plasmid DNA, (2686 BP, Bayou Biolabs) post-stained with ethidium bromide. Lanes λ are the molecular weight standards (23, 9.4, 6.6, 4.4, 2.3, and 2.0 kb). Lanes C are the pUC18 DNA controls, showing primarily the supercoiled (form I) and minor nicked (form II) forms of the circular pUC18 plasmid. The lane 1 for cisplatin is a 5:1 base pairs (BP):metal complex (MC) and lane 2 is a 20:1 BP:MC solution incubated at 37° C. for 1 hr. […] Lane 1 of “Ru3Pt” is the 20:1 DNA BP: MC solution of [{(bpy)2Ru(dpp)}2Ru(dpp)PtCl2](PF6)6 incubated at 37° C. for 1 hr. […] Lane 4 is a 20:1 BP:MC solution photolyzed at λ>450 nm for 1 hour, under argon.
A mixed-metal complex, [{(bpy)2Ru(dpp)}2Ru(dpq)PtCl2](PF6)6, was synthesized using bridging ligands dpq (2,3-bis(2-pyridyl)quinoxaline), and dpp (the ligand described in Example 1). The complex was tested for its ability to bind DNA and to photocleave the DNA in an O2 dependent manner by incubating the complex with DNA in the ambient atmosphere and under argon. […]

Assay [2] has as its system pUC18 circular plasmid DNA. As to the kind of experiment: DNA photocleavage by agarose gel electrophoresis (form I to form II conversion) after visible light photolysis. It is filed as biochemical. Conditions: for DNA photocleavage: 10:1 ratio; for DNA photocleavage (supercoiled form I to nicked form II): 20:1 BP:MC.
Text: as §1, §2, §3, §4
A mixed-metal complex, [{(bpy)2Ru(dpp)}2Ru(dpq)PtCl2](PF6)6, was synthesized using bridging ligands dpq (2,3-bis(2-pyridyl)quinoxaline), and dpp (the ligand described in Example 1). The complex was tested for its ability to bind DNA and to photocleave the DNA in an O2 dependent manner by incubating the complex with DNA in the ambient atmosphere and under argon. […] This illustrates the metal complex binds to DNA and photocleaves DNA in a oxygen dependent manner.
A mixed-metal complex, [{(bpy)2Os(dpp)}2Ru(dpq)PtCl2](PF6)6, was synthesized using bridging ligands dpq (2,3-bis(2-pyridyl)quinoxaline), and dpp (as described in Example 3) but using osmium as a light absorbing metal component. […] This illustrates this metal complex also binds to DNA and photocleaves DNA in a oxygen dependent manner.

The mark [3] stands for this setting: photolyzed under ambient atmosphere (O2).

For [{(bpy)2Os(dpp)}2Ru(dpq)PtCl2](PF6)6, in assay [1], the DNA binding entry was “effective in binding to DNA”. Further, the DNA photocleavage entry is recorded as “not in the absence of O2” in assay [2] (photolyzed for 1 hour under Ar) and “cleaved only when O2 was present” in assay [2] (setting [3]).

Regarding “[{(bpy)2Ru(dpp)}2Ru(dpp)PtCl2](PF6)6 [Ru3Pt]”, the “DNA binding (migration of pUC18 through the gel)” value in assay [1] (Ru3Pt lane 1, 20:1 BP:MC, b60 prints incubated at 37° C. for 1 hr, FIG. 6 legend prints kept in the dark at room temperature) was “decreased migration of the form I pUC18 through the gel”. Further, the “DNA photocleavage (supercoiled form I to nicked form II)” value in assay [2] (photolyzed λ>450 nm for 1 hour, under argon) is “no DNA photocleavage is observed”; in assay [2] (photolyzed λirr>450 nm for 1 hour, under atmospheric conditions), “appreciable conversion of the supercoiled (form 1) to nicked (form II) DNA”.

“[{(bpy)2Ru(dpp)}2Ru(dpp)](PF6)6 [Ru3, reference compound]”: the “DNA binding (migration of pUC18 through the gel)” value in assay [1] (20:1 BP:MC, incubated at 37° C. for 1 hr) was “migration of the DNA is not impacted”.

For the substance [{(bpy)2Ru(dpp)}2Ru(dpq)PtCl2](PF6)6, the DNA binding entry in assay [1] is “effective in binding to DNA”. In addition, the results for the DNA photocleavage result in assay [2] (photolyzed for 1 hour under Ar) and in assay [2] (setting [3]) were “not in the absence of O2” and “cleaved only when O2 was present”, respectively.

On to “cis-[Pt(NH3)2Cl2] [cisplatin, reference compound]”, for which the “DNA binding (migration of pUC18 through the gel)” value in assay [1] (5:1 and 20:1 BP:MC, incubated at 37° C. for 1 hr) is “migration of form I of the pUC18 is retarded”.

These data come from US8148360B2, “Supramolecular metallic complexes exhibiting both DNA binding and photocleavage” (Virginia Tech Intellectual Properties, Inc., priority 2006, dated 2012).
